In patent US20150064172A1, “METHODS OF TREATING A DISEASE OR DISORDER ASSOCIATED WITH BRUTON'S TYROSINE KINASE” (Celgene Avilomics Research, Inc., priority 2013, published 2015):
Like-named read-outs stand apart in the source and are kept apart here.

How the values were obtained:
CLL = experiment: Compound 1 besylate monotherapy in patients with CLL; type: in vivo
[1] = Environmental stability (heat, acid, base); type: physicochemical
Solubility = type: physicochemical
relapsed/refractory CLL = conditions: cited from earlier work
[2] = monotherapy, as of Sep. 11, 2012
[3] = 25 mg for 21 days of every 28-day cycle

SMILES: C=CC(=O)Nc1cccc(Nc2nc(Nc3ccc(OCCOC)cc3)ncc2F)c1.O=S(=O)(O)c1ccccc1 [Compound 1 besylate, N-(3-(5-fluoro-2-(4-(2-methoxyethoxyl)phenylamino)pyrimidin-4-ylamino)phenyl)acrylamide benzenesulfonic acid salt]
- patients who experienced early increases in absolute lymphocyte counts (ALC) (CLL; [2]): 28 of 33
- patients who experienced reductions in lymph node size (CLL; [2]): 15 of 23
- patients with CLL who experienced stable disease and continue on treatment (CLL; [2]): 35 out of 43
- environmental instabilities (i.e. heat, acid, base) [1]: no environmental instabilities
- solubility (Solubility; ethanol, organic solvent or mixture, read-out: solubility in ethanol): ~10000 µg/mL
- solubility (Solubility; water, read-out: solubility in water): ~160 µg/mL

SMILES: Nc1cccc2c1CN(C1CCC(=O)NC1=O)C2=O (centres unmarked) [lenalidomide, 3-(4-amino-1-oxo-1,3-dihydro-2H-isoindol-2-yl)piperidine-2,6-dione]
- Complete Response [CR] (relapsed/refractory CLL; [3]): 18%
- Partial Response [PR] (relapsed/refractory CLL; [3]): 36%
- median progression-free survival (PFS) time (relapsed/refractory CLL; [3]): 19.4 months
- median time to best response (relapsed/refractory CLL; [3]): 5.9 months
- overall response (relapsed/refractory CLL; [3]): 53%
- Clinical responses (CR or PR) (relapsed/refractory CLL; subjects refractory to fludarabine): 30%
- Clinical responses (CR or PR) (relapsed/refractory CLL; subjects with del (11)(q23) and/or del (17)(p13.1) adverse cytogenetics): 47%

SMILES: C=CC(=O)Nc1cccc(Nc2nc(Nc3ccc(OCCOC)cc3)ncc2F)c1 [Compound 1, N-(3-(5-fluoro-2-(4-(2-methoxyethoxyl)phenylamino)pyrimidin-4-ylamino)phenyl)acrylamide]
- maximum tolerated dose (MTD) (CLL; single agent): has not yet been reached
